These results are taken from the supplement of paper PMC11208160.
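Also: IS621 bridge recombinase in Escherichia coli cells against a fixed T5 target plasmid.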

This data set is described as follows: recombinant UMI read abundance after kanamycin selection (control-corrected) (log10(CPM+1)); higher = more efficient recombination; extreme values may be limits of the assay; sequences stand for … in AGTGCAGAGAAAATCGGCCAGTTTTCTCTGCCTGCAGTCCGCATGCCGTGGGACCCCTTGGGTTCTAACCTGTTGCCTAGATTTATGCAGCGGACTGCCTTTCTCCCAAAGTGATAAACCGG…AGGTTGGTTTCACT; site = the 11-nt donor. In a few lines:
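Sequencing read counts were converted to CPM, averaged over two replicates and scaled by control-derived factors. Results are given as log10(CPM+1). The reads covered the donor–target junction of recombinant UMIs from a pooled Escherichia coli screen of donor and donor-binding-loop pairs for the IS621 bridge recombinase.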
“CAAGTCACATGGACCGGTTTTCCCGGTAATCCGTATTTGTG (site CAAGTCACTCA)”: the “recombinant UMI read abundance (log10)” value is 0.0199.
On to “CAAGTCACATGGACCGGTTTTCCCGGTAATCCGTATTTGTG (site CAAGTCACTCC)”, for which the “recombinant UMI read abundance (log10)” value worked out at 0.0385.
Then “CAAGTCACATGGACCGGTTTTCCCGGTAATCCGTATTTGTG (site CAAGTCACTCG)”, with 0.151.
The result for “CAAGTCACATGGACCGGTTTTCCCGGTAATCCGTATTTGTG (site CAAGTCACTCT)” reads 0.103; that for “CAAGTCCCATGGACCGGTTTTCCCGGTAATCCGTATTTGGG (site CAAGTCACTCC)”, 0.0127.
As for “CAAGTCCCATGGACCGGTTTTCCCGGTAATCCGTATTTGGG (site CAAGTCCCTCC)”, the “recombinant UMI read abundance (log10)” value was determined as 0.00917.
Then “CAAGTCCCATGGACCGGTTTTCCCGGTAATCCGTATTTGGG (site CAAGTCGCTCC)”, with 0.0161; and “CAAGTCCCATGGACCGGTTTTCCCGGTAATCCGTATTTGGG (site CAAGTCTCTCC)”, with 0.025; and “CAAGTGCCATGGACCGGTTTTCCCGGTAATCCGTATTTGTG (site CAAGAGCCTCA)”, with 0.354.
The result for “CAAGTGCCATGGACCGGTTTTCCCGGTAATCCGTATTTGTG (site CAAGCGCCTCA)” reads 0.389.
On to “CAAGTGCCATGGACCGGTTTTCCCGGTAATCCGTATTTGTG (site CAAGGGCCTCA)”, for which the “recombinant UMI read abundance (log10)” value was determined as 0.21.
Then “CAAGTGCCATGGACCGGTTTTCCCGGTAATCCGTATTTGTG (site CAAGTGCCTCA)”, with 0.662; and “CAATCGACATGGACCGGTTTTCCCGGTAATCCGTATTTGGG (site CAATCGACTCC)”, with 0.0993; and “CAATCGACATGGACCGGTTTTCCCGGTAATCCGTATTTGGG (site CACTCGACTCC)”, with 0.335.
Turning to “CAATCGACATGGACCGGTTTTCCCGGTAATCCGTATTTGGG (site CAGTCGACTCC)”, the “recombinant UMI read abundance (log10)” value is 0.
Take “CAATCGACATGGACCGGTTTTCCCGGTAATCCGTATTTGGG (site CATTCGACTCC)”: the “recombinant UMI read abundance (log10)” value amounted to 0.0172.
The result for “CAATCGACATGGACCGGTTTTCCCGGTAATCCGTATTTGTT (site CAATCGACTAA)” reads 0.347; that for “CAATCGACATGGACCGGTTTTCCCGGTAATCCGTATTTGTT (site CCATCGACTAA)”, 0.0214.
The result for “CAATCGACATGGACCGGTTTTCCCGGTAATCCGTATTTGTT (site CGATCGACTAA)” reads 0.0271; that for “CAATCGACATGGACCGGTTTTCCCGGTAATCCGTATTTGTT (site CTATCGACTAA)”, 0.0699; that for “CAATGCTCATGGACCGGTTTTCCCGGTAATCCGTATTTGAA (site AAATGCTCTTT)”, 0.129.
Then “CAATGCTCATGGACCGGTTTTCCCGGTAATCCGTATTTGAA (site CAAAGCTCTTT)”, with 0.393.
On to “CAATGCTCATGGACCGGTTTTCCCGGTAATCCGTATTTGAA (site CAACGCTCTTT)”, for which the “recombinant UMI read abundance (log10)” value turned out to be 1.58.
For “CAATGCTCATGGACCGGTTTTCCCGGTAATCCGTATTTGAA (site CAAGGCTCTTT)”, the “recombinant UMI read abundance (log10)” value turned out to be 0.0098.
“CAATGCTCATGGACCGGTTTTCCCGGTAATCCGTATTTGAA (site CAATACTCTTT)”: the “recombinant UMI read abundance (log10)” value came out at 1.94.
Take “CAATGCTCATGGACCGGTTTTCCCGGTAATCCGTATTTGAA (site CAATCCTCTTT)”: the “recombinant UMI read abundance (log10)” value was found to be 0.0831.
Regarding “CAATGCTCATGGACCGGTTTTCCCGGTAATCCGTATTTGAA (site CAATGATCTTT)”, the “recombinant UMI read abundance (log10)” value was 0.389.
Turning to “CAATGCTCATGGACCGGTTTTCCCGGTAATCCGTATTTGAA (site CAATGCACTTT)”, the “recombinant UMI read abundance (log10)” value amounted to 0.182.
The result for “CAATGCTCATGGACCGGTTTTCCCGGTAATCCGTATTTGAA (site CAATGCCCTTT)” reads 1.25; that for “CAATGCTCATGGACCGGTTTTCCCGGTAATCCGTATTTGAA (site CAATGCGCTTT)”, 0.0142; that for “CAATGCTCATGGACCGGTTTTCCCGGTAATCCGTATTTGAA (site CAATGCTCTAT)”, 1.03.
Consider “CAATGCTCATGGACCGGTTTTCCCGGTAATCCGTATTTGAA (site CAATGCTCTCT)”, for which the “recombinant UMI read abundance (log10)” value was 0.924.
The result for “CAATGCTCATGGACCGGTTTTCCCGGTAATCCGTATTTGAA (site CAATGCTCTGT)” reads 0.818; that for “CAATGCTCATGGACCGGTTTTCCCGGTAATCCGTATTTGAA (site CAATGCTCTTA)”, 0.908; that for “CAATGCTCATGGACCGGTTTTCCCGGTAATCCGTATTTGAA (site CAATGCTCTTC)”, 0.687.
Turning to “CAATGCTCATGGACCGGTTTTCCCGGTAATCCGTATTTGAA (site CAATGCTCTTG)”, the “recombinant UMI read abundance (log10)” value amounted to 0.554.
Consider “CAATGCTCATGGACCGGTTTTCCCGGTAATCCGTATTTGAA (site CAATGCTCTTT)”, for which the “recombinant UMI read abundance (log10)” value was determined as 2.57.
The result for “CAATGCTCATGGACCGGTTTTCCCGGTAATCCGTATTTGAA (site CAATGGTCTTT)” reads 0.0124; that for “CAATGCTCATGGACCGGTTTTCCCGGTAATCCGTATTTGAA (site CAATGTTCTTT)”, 0.
The result for “CAATGCTCATGGACCGGTTTTCCCGGTAATCCGTATTTGAA (site CAATTCTCTTT)” reads 0; that for “CAATGCTCATGGACCGGTTTTCCCGGTAATCCGTATTTGAA (site CACTGCTCTTT)”, 0.0585.
The result for “CAATGCTCATGGACCGGTTTTCCCGGTAATCCGTATTTGAA (site CAGTGCTCTTT)” reads 0.102.
As for “CAATGCTCATGGACCGGTTTTCCCGGTAATCCGTATTTGAA (site CATTGCTCTTT)”, the “recombinant UMI read abundance (log10)” value is 0.408.
The result for “CAATGCTCATGGACCGGTTTTCCCGGTAATCCGTATTTGAA (site CCATGCTCTTT)” reads 0.461; that for “CAATGCTCATGGACCGGTTTTCCCGGTAATCCGTATTTGAA (site CGATGCTCTTT)”, 0.0125.
Take “CAATGCTCATGGACCGGTTTTCCCGGTAATCCGTATTTGAA (site CTATGCTCTTT)”: the “recombinant UMI read abundance (log10)” value was 0.217.
With “CAATGCTCATGGACCGGTTTTCCCGGTAATCCGTATTTGAA (site GAATGCTCTTT)”, the “recombinant UMI read abundance (log10)” value amounted to 0.00437.
On to “CAATGCTCATGGACCGGTTTTCCCGGTAATCCGTATTTGAA (site TAATGCTCTTT)”, for which the “recombinant UMI read abundance (log10)” value amounted to 0.0133.
Then “CAATGCTCATGGACCGGTTTTCCCGGTAATCCGTATTTGTA (site CAATGCTCTTA)”, with 3.1; and “CAATGCTCATGGACCGGTTTTCCCGGTAATCCGTATTTGTA (site CAATGCTCTTC)”, with 0.746.
As for “CAATGCTCATGGACCGGTTTTCCCGGTAATCCGTATTTGTA (site CAATGCTCTTG)”, the “recombinant UMI read abundance (log10)” value was determined as 2.25.
On to “CAATGCTCATGGACCGGTTTTCCCGGTAATCCGTATTTGTA (site CAATGCTCTTT)”, for which the “recombinant UMI read abundance (log10)” value was found to be 1.55.
